Data reported in PubChem BioAssay AID248 (DTP/NCI, 2004).
Several values for one entry are separate records, joined by “and”; a condition that tells them apart may be missing. Equal values may be shown once. Toxic doses and inconclusive results are not listed. Peptide text beside a SMILES is read from it. * marks the point of attachment. Boc = CC(C)(C)OC(=O)*

Test system: L1210 leukemia ip in BDF1 mice, survival T/C
Assay: NCI In Vivo Anticancer Drug Screen. Data for tumor model L1210 Leukemia (intraperitoneal) in B6D2F1 (BDF1) mice
Details: endpoint: mean survival time, higher = longer survival
Procedure, shortened: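 Transplantable tumor model; survival measured in treated vs vehicle control mice. Value = treated/control.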

[1] = dose: 75.0 mg/kg/injection, schedule: Q01DX001 (ip), vehicle: saline
[2] = dose: 100.0 mg/kg/injection, schedule: Q01DX001 (ip), vehicle: saline
[3] = dose: 200.0 mg/kg/injection, schedule: Q01DX001 (ip), vehicle: saline
[4] = dose: 100.0 mg/kg/injection, schedule: Q01DX001 (ip), vehicle: carboxymethylcellulose (CMC)
[5] = dose: 200.0 mg/kg/injection, schedule: Q01DX001 (ip), vehicle: carboxymethylcellulose (CMC)
[6] = dose: 50.0 mg/kg/injection, schedule: Q01DX001 (ip), vehicle: saline
[7] = dose: 400.0 mg/kg/injection, schedule: Q01DX001 (ip), vehicle: saline
[8] = dose: 100.0 mg/kg/injection, schedule: Q01DX009 (ip), vehicle: gum acacia
[9] = dose: 200.0 mg/kg/injection, schedule: Q01DX009 (ip), vehicle: gum acacia
[10] = dose: 150.0 mg/kg/injection, schedule: Q01DX001 (ip), vehicle: saline
[11] = dose: 300.0 mg/kg/injection, schedule: Q01DX001 (ip), vehicle: saline
[12] = dose: 200.0 mg/kg/injection, schedule: Q04DX002 (ip), vehicle: saline with Tween-80

`C1=C(/c2ccccc2)CCCCCC/1` was tested, and the T/C (dose: 37.5 mg/kg/injection, schedule: Q01DX009 (ip), vehicle: saline) was 101 % of control, the T/C (dose: 75.0 mg/kg/injection, schedule: Q01DX001 (ip), vehicle: acetone) was 98 % of control and the T/C (dose: 75.0 mg/kg/injection, schedule: Q01DX009 (ip), vehicle: saline) was 90 % of control. For the same compound, the T/C (dose: 150.0 mg/kg/injection, schedule: Q01DX001 (ip), vehicle: acetone) was 93 % of control, the T/C (dose: 150.0 mg/kg/injection, schedule: Q01DX009 (ip), vehicle: saline) was 103 % of control and the T/C (dose: 300.0 mg/kg/injection, schedule: Q01DX001 (ip), vehicle: acetone) was 91 % of control.

With `C=C(C)C1(Cc2ccccc2)C(=O)NC(=O)NC1=O` the T/C [1] was 98 % of control.

`CN1CCC(CN2c3ccccc3Sc3ccccc32)CC1` was tested, and the T/C (dose: 6.25 mg/kg/injection, schedule: Q01DX009 (ip), vehicle: saline with Tween-80) was 93 % of control, the T/C (dose: 12.5 mg/kg/injection, schedule: Q01DX009 (ip), vehicle: saline with Tween-80) was 93 % of control and the T/C (dose: 15.0 mg/kg/injection, schedule: Q01DX Z (ip), vehicle: methylcellulose (MC)) was 104 % of control. For the same compound, the T/C (dose: 25.0 mg/kg/injection, schedule: Q01DX009 (ip), vehicle: saline with Tween-80) was 93 % of control, the T/C (dose: 25.0 mg/kg/injection, schedule: Q04DX003 (ip), vehicle: saline) was 108 % of control and the T/C (dose: 30.0 mg/kg/injection, schedule: Q01DX Z (ip), vehicle: methylcellulose (MC)) was 108 % of control. For the same compound, the T/C (dose: 45.0 mg/kg/injection, schedule: Q01DX Z (ip), vehicle: methylcellulose (MC)) was 96 % of control, the T/C (dose: 50.0 mg/kg/injection, schedule: Q04DX003 (ip), vehicle: saline) was 100 % of control and 109 % of control and the T/C [2] was 103 % of control. For the same compound, the T/C (dose: 100.0 mg/kg/injection, schedule: Q04DX003 (ip), vehicle: saline) was 97 % of control, the T/C [3] was 102 % of control and the T/C (dose: 200.0 mg/kg/injection, schedule: Q04DX003 (ip), vehicle: saline) was 106 % of control and 108 % of control. For the same compound, the T/C (dose: 400.0 mg/kg/injection, schedule: Q04DX003 (ip), vehicle: saline) was 97 % of control.

With `c1ccc2c3c(cc(C4CCCC4)c2c1)CCCC3` the T/C [4] was 88 % of control and the T/C [5] was 91 % of control.

In the case of `c1cc[c]([Sn]([c]2ccccc2)([c]2ccccc2)[n]2nnc3ccccc32)cc1`, the T/C (dose: 6.25 mg/kg/injection, schedule: Q04DX002 (ip), vehicle: saline with Tween-80) was 96 % of control, the T/C (dose: 12.5 mg/kg/injection, schedule: Q04DX002 (ip), vehicle: saline with Tween-80) was 101 % of control and the T/C (dose: 25.0 mg/kg/injection, schedule: Q04DX002 (ip), vehicle: saline with Tween-80) was 101 % of control.

With `O=S(=O)(Cl)c1ccc(Oc2ccc(S(=O)(=O)Cl)cc2)cc1` the T/C [6] was 105 % of control, the T/C [2] was 94 % of control and the T/C [3] was 105 % of control. The T/C [7] was 90 % of control.

In the case of `O=C(O)c1cc(Br)c(-c2c(Br)cc(C(=O)O)cc2[N+](=O)[O-])c([N+](=O)[O-])c1`, the T/C (dose: 50.0 mg/kg/injection, schedule: Q01DX001 (ip), vehicle: Klucel (hydroxypropylcellulose) (HPC)) was 95 % of control, the T/C (dose: 100.0 mg/kg/injection, schedule: Q01DX001 (ip), vehicle: Klucel (hydroxypropylcellulose) (HPC)) was 106 % of control and the T/C (dose: 200.0 mg/kg/injection, schedule: Q01DX001 (ip), vehicle: Klucel (hydroxypropylcellulose) (HPC)) was 95 % of control.

With `O=C(OCCN1C(=O)c2cccc3c(Br)ccc(c23)C1=O)OCc1ccccc1` the T/C (dose: 100.0 mg/kg/injection, schedule: Q04DX002 (ip), vehicle: alcohol) was 103 % of control, the T/C (dose: 200.0 mg/kg/injection, schedule: Q04DX002 (ip), vehicle: alcohol) was 100 % of control and the T/C (dose: 400.0 mg/kg/injection, schedule: Q04DX002 (ip), vehicle: alcohol) was 100 % of control.

In the case of `ClC1=C(Cl)C2(Cl)C(c3ccccc3)=CC1(Cl)C2(Cl)Cl` (stereo not given), the T/C [8] was 93 % of control, the T/C (dose: 100.0 mg/kg/injection, schedule: Q04DX003 (ip), vehicle: gum acacia) was 114 % of control and the T/C [9] was 90 % of control. For the same compound, the T/C (dose: 200.0 mg/kg/injection, schedule: Q04DX003 (ip), vehicle: gum acacia) was 99 % of control, the T/C (dose: 400.0 mg/kg/injection, schedule: Q01DX009 (ip), vehicle: gum acacia) was 100 % of control and the T/C (dose: 400.0 mg/kg/injection, schedule: Q04DX003 (ip), vehicle: gum acacia) was 92 % of control.

With `CCSC1C(OC(C)=O)C(C(COC(C)=O)OC(C)=O)OC1n1cnc2c(Cl)nc(Cl)nc21` (stereo not given) the T/C (dose: 100.0 mg/kg/injection, schedule: Q01DX005 (ip), vehicle: saline) was 109 % of control and the T/C (dose: 200.0 mg/kg/injection, schedule: Q01DX005 (ip), vehicle: saline) was 109 % of control.

With `O=CNNCc1c[nH]c(=O)[nH]c1=O` the T/C [6] was 96 % of control, the T/C [2] was 96 % of control and the T/C [3] was 96 % of control. The T/C [7] was 98 % of control.

With `COCC(C)C=O` (stereo not given) the T/C (dose: 50.0 mg/kg/injection, schedule: Q01DX009 (ip), vehicle: saline with Tween-80) was 91 % of control, the T/C (dose: 100.0 mg/kg/injection, schedule: Q01DX009 (ip), vehicle: saline with Tween-80) was 91 % of control and the T/C (dose: 200.0 mg/kg/injection, schedule: Q01DX009 (ip), vehicle: saline with Tween-80) was 94 % of control.

In the case of `COC(=O)CNC(=O)C(CC(C)C)NC(=O)C(CC(C)C)NC(=O)OC(C)(C)C` (stereo not drawn) (Boc-Leu-Leu-Gly-OMe; configuration not given here), the T/C [1] was 106 % of control, the T/C [10] was 98 % of control and the T/C [11] was 98 % of control.

For `O=C(Nc1ccc(C2=NCCN2)cc1)c1ccc(NC(=O)c2ccc(C3=NCCN3)cc2)cc1`, the T/C (dose: 1.88 mg/kg/injection, schedule: Q01DX Z (ip), vehicle: saline) was 101 % of control, the T/C (dose: 3.75 mg/kg/injection, schedule: Q01DX Z (ip), vehicle: saline) was 106 % of control and the T/C (dose: 7.5 mg/kg/injection, schedule: Q01DX Z (ip), vehicle: saline) was 117 % of control. The T/C (dose: 15.0 mg/kg/injection, schedule: Q01DX009 (ip), vehicle: saline) was 119 % of control, the T/C (dose: 30.0 mg/kg/injection, schedule: Q01DX009 (ip), vehicle: saline) was 190 % of control and the T/C (dose: 30.0 mg/kg/injection, schedule: Q01DX Z (ip), vehicle: carboxymethylcellulose (CMC)) was 203 % of control. For the same compound, the T/C (dose: 50.0 mg/kg/injection, schedule: Q01DX007 (oral), vehicle: carboxymethylcellulose (CMC)) was 103 % of control, the T/C (dose: 60.0 mg/kg/injection, schedule: Q01DX009 (ip), vehicle: saline) was 197 % of control and 232 % of control and the T/C (dose: 62.5 mg/kg/injection, schedule: Q## X010 (oral), vehicle: saline) was 101 % of control. For the same compound, the T/C (dose: 100.0 mg/kg/injection, schedule: Q01DX007 (oral), vehicle: carboxymethylcellulose (CMC)) was 100 % of control, the T/C (dose: 120.0 mg/kg/injection, schedule: Q01DX009 (ip), vehicle: saline) was 117 % of control and the T/C (dose: 125.0 mg/kg/injection, schedule: Q## X010 (oral), vehicle: saline) was 102 % of control. The T/C (dose: 200.0 mg/kg/injection, schedule: Q01DX007 (oral), vehicle: carboxymethylcellulose (CMC)) was 108 % of control, the T/C (dose: 400.0 mg/kg/injection, schedule: Q01DX007 (oral), vehicle: carboxymethylcellulose (CMC)) was 94 % of control and the T/C (dose: 500.0 mg/kg/injection, schedule: Q## X010 (oral), vehicle: saline) was 101 % of control. The T/C (dose: 800.0 mg/kg/injection, schedule: Q01DX007 (oral), vehicle: carboxymethylcellulose (CMC)) was 101 % of control.

With `CC(C)(F)C(Br)C(=O)O` (stereo not given) the T/C [12] was 93 % of control.

For `CC(O)(c1ccccc1)c1ccccc1S(=O)(=O)Nc1ccccc1` (stereo not given), the T/C [4] was 101 % of control, the T/C [5] was 93 % of control and the T/C (dose: 400.0 mg/kg/injection, schedule: Q01DX001 (ip), vehicle: carboxymethylcellulose (CMC)) was 95 % of control.

`Nc1nc(N)c(C=O)c(Nc2ccc(Br)cc2)n1` was tested, and the T/C (dose: 50.0 mg/kg/injection, schedule: Q01DX001 (ip), vehicle: alcohol) was 110 % of control, the T/C (dose: 100.0 mg/kg/injection, schedule: Q01DX001 (ip), vehicle: alcohol) was 96 % of control and the T/C (dose: 200.0 mg/kg/injection, schedule: Q01DX001 (ip), vehicle: alcohol) was 94 % of control. For the same compound, the T/C (dose: 400.0 mg/kg/injection, schedule: Q01DX001 (ip), vehicle: alcohol) was 90 % of control.

With `C=CC1CN2CCC1CC2C(O)c1ccnc2ccccc12` (stereo not given) the T/C [8] was 107 % of control and the T/C [9] was 105 % of control.

For `CN(C)CCCNc1nc(-c2cccc(C(Cl)(Cl)Cl)c2)nc(C(Cl)(Cl)Cl)n1`, the T/C [1] was 95 % of control, the T/C [10] was 101 % of control and the T/C [11] was 91 % of control.

`CCC(C)(C)ON=O` was tested, and the T/C (dose: 100.0 mg/kg/injection, schedule: Q04DX002 (ip), vehicle: saline with Tween-80) was 107 % of control, the T/C [12] was 100 % of control and the T/C (dose: 400.0 mg/kg/injection, schedule: Q04DX002 (ip), vehicle: saline with Tween-80) was 96 % of control.
